What was measured:
Format in all cases: cell-based
[1] = test system: Jukat (human T lymphocyte cell line for acute T cell leukemia); assay: CellTiter Glo assay in Jukat cells
Description: (§1) The compounds prepared according to the methods described herein and tested for activity in the CellTiter Glo assay in HL60 (Human promyelocytic leukemia cell line), Jukat (human T lymphocyte cell line for acute T cell leukemia) and/or Nalm6 (human ALL cell line) cells.
(§2) Compounds were prepared according to the methods described herein and tested for activity in the CellTiter Glo assay in HL60 (Human promyelocytic leukemia cell line), Jukat (human T lymphocyte cell line for acute Tcell leukemia) and/or Nalm6 (human ALL cell line) cells.

[2] = test system: HL60 (Human promyelocytic leukemia cell line); assay: CellTiter Glo assay in HL60 cells
Description: as §1, §2

[3] = test system: Nalm6 (human ALL cell line); assay: CellTiter Glo assay in Nalm6 cells
Description: as §1, §2

| SMILES | IC50 ([2]; HL-60, second Table 4) | further results |
| --- | --- | --- |
| N#Cc1ccc(NC(=O)c2cc(Br)ccc2O)cc1Cl [Compound 7] | < 1000 nM |  |
| O=C(Nc1cc(C(F)(F)F)cc(C(F)(F)F)c1)c1cc(Br)ccc1O [Compound 159] | < 1000 nM | IC50 ([1]; second Table 4): < 1000 nM; IC50 ([3]; NALM-6, second Table 4): < 1000 nM |
| O=C(Nc1ccc(Cl)cc1)c1ccc2cccnc2c1O [Compound 67] |  | IC50 ([1]; Table 5): 100 to 1000 nM; IC50 ([2]; HL-60, Table 5): 100 to 1000 nM; IC50 ([3]; NALM-6, Table 5): 100 to 1000 nM |
| CC(=O)Oc1c(C(=O)Nc2ccc(C#N)cc2)ccc2cccnc12 [Compound 74] |  | IC50 ([2]; HL-60, Table 5): 100 to 1000 nM |
| Cc1cc(NC(=O)c2cc(Cl)ccc2O)ccc1Cl [Compound 35] | < 1000 nM |  |
| Cc1ccc(NC(=O)c2ccc3cccnc3c2O)c(C)c1 [Compound 89] |  | IC50 ([2]; HL-60, Table 5): 1000 to 10000 nM |
| O=C(Nc1ccc(Br)c(Cl)c1)c1cc(Cl)ccc1O [Compound 30] | < 1000 nM |  |
| N#Cc1ccc(NC(=O)c2ccc(Br)cc2O)cc1Cl [Compound 13] | < 1000 nM |  |
| O=C(Nc1ccc([N+](=O)[O-])cc1Cl)c1cc(F)ccc1O [Compound 22] | < 1000 nM |  |
| Cc1cc(NC(=O)c2cc(Cl)ccc2O)ccc1[N+](=O)[O-] [Compound 25] | < 1000 nM |  |
| O=C(Nc1cc(F)cc(F)c1)c1cc(F)ccc1O [Compound 41] | < 1000 nM |  |
| O=C(Nc1ccccc1C(F)(F)F)c1cc(F)ccc1O [Compound 62] | 1000 to 10000 nM |  |
| CC(=O)Oc1ccc(F)cc1C(=O)Nc1ccc(Br)c(Cl)c1 [Compound 27] | < 1000 nM | IC50 ([1]; second Table 4): < 1000 nM |
| O=C(Nc1c(Cl)cccc1Cl)c1ccc2cccnc2c1O [Compound 87] |  | IC50 ([2]; HL-60, Table 5): 100 to 1000 nM |
| N#Cc1ccc(C#N)c(NC(=O)c2ccc3cccnc3c2O)c1 [Compound 88] |  | IC50 ([2]; HL-60, Table 5): 100 to 1000 nM |
| N#Cc1ccc(NC(=O)c2cc(F)ccc2O)cc1Cl [Compound 5] | < 1000 nM |  |
| Cc1cc(Cl)ccc1NC(=O)c1cc(F)ccc1O [Compound 36] | 1000 to 10000 nM |  |

Second part, led by results:

| IC50 ([2]; HL-60, second Table 4) | SMILES | further results |
| --- | --- | --- |
| < 1000 nM | CCOC(=O)c1cccc(NC(=O)c2cc(F)ccc2O)c1 [Compound 58] | IC50 ([1]; second Table 4): 1000 to 10000 nM; IC50 ([3]; NALM-6, second Table 4): 1000 to 10000 nM |
| < 1000 nM | O=C(Nc1ccc(F)c(F)c1)c1cc(F)ccc1O [Compound 32] | IC50 ([1]; second Table 4): < 1000 nM; IC50 ([3]; NALM-6, second Table 4): 1000 to 10000 nM |
| 1000 to 10000 nM | COc1ccc(NC(=O)c2cc(F)ccc2O)cc1 [Compound 54] | IC50 ([1]; second Table 4): > 10000 nM; IC50 ([3]; NALM-6, second Table 4): > 10000 nM |
| < 1000 nM | N#Cc1ccc(NC(=O)c2ccc(Br)cc2O)cc1 [Compound 9] |  |
| < 1000 nM | Cc1cc(NC(=O)c2cc(F)ccc2O)ccc1C#N [Compound 6] |  |
| < 1000 nM | N#Cc1ccc(NC(=O)c2ccc(Br)cc2O)c(Cl)c1 [Compound 11] |  |
| < 1000 nM | N#Cc1ccc(NC(=O)c2cc(Cl)ccc2O)cc1 [Compound 3] |  |
| 1000 to 10000 nM | Cc1ccc(NC(=O)c2cc(F)ccc2O)cc1C#N [Compound 19] |  |
| < 1000 nM | N#Cc1ccc(NC(=O)c2ccc(Cl)cc2O)cc1 [Compound 16] |  |
| < 1000 nM | N#Cc1ccc(NC(=O)c2cc(F)ccc2O)cc1 [Compound 8] |  |
| < 1000 nM | O=C(Nc1ccc([N+](=O)[O-])cc1)c1cc(F)ccc1O [Compound 160] |  |
| 1000 to 10000 nM | O=C(Nc1ccc(-c2ccccc2)cc1)c1cc(F)ccc1O [Compound 53] |  |
| < 1000 nM | Cc1cc(NC(=O)c2cc(F)ccc2O)ccc1[N+](=O)[O-] [Compound 21] |  |
| < 1000 nM | N#Cc1ccc(NC(=O)c2ccc(F)cc2O)cc1 [Compound 10] |  |
| < 1000 nM | N#Cc1ccc(NC(=O)c2ccc(Br)cc2O)c(F)c1 [Compound 12] |  |
| 1000 to 10000 nM | O=C(Nc1ccccc1F)c1cc(F)ccc1O [Compound 61] |  |
| 1000 to 10000 nM | N#Cc1ccc(NC(=O)c2ccccc2O)cc1 [Compound 1] |  |
| < 1000 nM | N#Cc1ccc(NC(=O)c2cc(Br)ccc2O)cc1 [Compound 2] |  |
| 1000 to 10000 nM | COc1cc(NC(=O)c2cc(F)ccc2O)ccc1F [Compound 55] |  |
| < 1000 nM | O=C(Nc1ccc(Br)c(Cl)c1)c1cc(F)ccc1O [Compound 26] |  |
| < 1000 nM | Cc1cc(NC(=O)c2cc(F)ccc2O)ccc1Cl [Compound 34] |  |
